{
  "source": "paper PMC9865397",
  "about": "“Colon-Targeted Trans-Cinnamic Acid Ameliorates Rat Colitis by Activating GPR109A” (Pharmaceutics, 2022)",
  "key": {"DNBS-induced rat colitis": {"tested_on": "DNBS-induced rat colitis", "assay": "DNBS-induced rat colitis, anti-colitic effects", "type": "in vivo", "details": "for colonic damage (CDS) / CINC-3 level in inflamed distal colon / MPO activity in inflamed distal colon / iNOS and COX-2 protein levels in inflamed distal colon: oral once per day for 6 days, tCA 30 mg/kg; for colonic damage (CDS): tCA-GA equivalent to 15 (L) and 30 (H) mg/kg tCA, SSZ 30 mg/kg; for CINC-3 level in inflamed distal colon / MPO activity in inflamed distal colon / iNOS and COX-2 protein levels in inflamed distal colon: tCA-GA L and H", "experimental": "For an animal experiment to evaluate the anti-colitic effects of drugs, six groups (n = 5 rats per group) were made and treated via oral gavage as follows: normal group, 1.0 mL of phosphate buffered saline (pH 7.4, PBS); colitis group, 1.0 mL of PBS; tCA-treated colitis group, tCA (30 mg/kg) in 1.0 mL of PBS; tCA-GA-treated colitis group (L), tCA-GA (28 mg/kg, equivalent to 15 mg/kg of tCA) in 1.0 mL of PBS; tCA-GA-treated colitis group (H), tCA-GA (56 mg/kg, equivalent to 30 mg/kg of tCA) in 1.0 mL of PBS; SSZ-treated colitis group, SSZ (30 mg/kg) in 1.0 mL of PBS. For the other experiment to evaluate GPR109A-dependent anti-colitic effects of tCA-GA, five groups (n = 5 rats per group) were made and treated via oral gavage as follows: normal group, 1.0 mL of PBS; colitis group, 1.0 mL of PBS; tCA-GA-treated colitis group, tCA-GA (28 mg/kg) in 1.0 mL of PBS; tCA-GA + MPZ-treated colitis group, tCA-GA (28 mg/kg) and MPZ (2 mg/kg) in 1.0 mL of PBS; MPZ-treated colitis group, MPZ (2 mg/kg) in 1.0 mL of PBS.\nDNBS-mediated colitis was induced in rats as described previously. Additionally, 3 days after the induction of colitis, the drugs were administered once per day for 6 days as in Section 2.10. The rats were killed to obtain the inflamed distal colon. The colonic damage score (CDS), assessing pathological state in colon tissue and neighbor organs ascribed to DNBS-induced inflammation, was calculated according to the criteria set previously. For histological evaluation, fixed colon tissues were embedded in paraffin, sections with a thickness of 4 μm were cut and stained with hematoxylin and eosin (H&E). The sections were examined under a light microscope (Olympus BX43, Olympus Co., Tokyo, Japan). Myeloperoxidase (MPO) activity was measured as described previously.\n(§1) Changes in levels of the proteins were monitored using Western blotting. Cell lysates and tissue lysates of the distal colon were prepared for Western blot analysis as described previously. To determine the protein concentrations in the lysates, bicinchoninic acid reagent (Thermo Fisher Scientific, Waltham, MA, USA) was used according to the manufacturer’s instructions. SDS-PAGE (10 or 7.5% gels) was used to separate and analyze the proteins in the sample lysates. Anti-cyclooxygenase (COX-2, sc-365374, Santa Cruz Biotechnology, Dallas, TX, USA) and anti-inducible nitric oxide synthase (iNOS) antibodies (sc-7271, Santa Cruz Biotechnology) were used to detect COX-2 and iNOS proteins, respectively. Horseradish peroxidase-conjugated secondary antibodies (Santa Cruz Biotechnology) were used to label the primary antibodies. The protein bands in membranes were visualized using the SuperSignal chemiluminescence substrate (Thermo Fisher Scientific, Waltham, MA, USA). As a loading control, α-tubulin was detected using an anti-α-tubulin antibody (Santa Cruz Biotechnology). Intensity of Western blots was quantified using Image Lab software (version 5.2 build 14, Bio-Rad, Hercules, CA, USA). The mean values (n = 3 for cell experiments, n = 5 for animal experiments) were shown under the blots in figures. Original images of Western blots are shown in Supplementary Data S1.\nThe distal colon samples (0.1 g) obtained from rats were minced in a potassium phosphate buffer (pH 6.0, 1.0 mL), homogenized using a T10 basic/IKA homogenizer (ULTRA-TURRAX®, Staufen im Breisgau, Germany), and centrifuged at 10,000× g for 10 min at 4 °C. The levels of CINC-3 and IL-10 were determined in the samples using ELISA kits, according to the manufacturer’s instructions."}, "RAW 264.7 cells": {"tested_on": "RAW 264.7 cells", "assay": "LPS-stimulated RAW 264.7 cells: IL-10, COX-2 and iNOS levels", "type": "cell-based, murine", "experimental": "as §1"}, "[1]": {"assay": "Distribution coefficient (log D6.8), n-octanol/buffer pH 6.8", "type": "physicochemical", "details": "n-octanol/buffer (pH 6.8) system; read-out: distribution coefficient (DC, log D6.8)", "experimental": "(§2) Distribution coefficients (log D6.8) of tCA, tCA-AA, and tCA-GA were measured as described previously. The concentrations of drugs were determined using a UV-Vis spectrophotometer (Shimadzu, Tokyo, Japan) at 277 nm, and log D6.8 was calculated using the equation reported previously. The chemical stabilities of tCA-GA and tCA-AA were analyzed in HCl-NaCl buffer (pH 1.2) and pH 6.8 isotonic phosphate buffer, representing the physiological pH of the stomach and small intestine, respectively. Each drug (0.1 mM) dissolved in the buffers was incubated for at least 12 h, and change in the concentrations of the drugs was monitored using HPLC analysis."}, "Caco-2 cell monolayer": {"tested_on": "Caco-2 cell monolayer", "assay": "Caco-2 cell monolayer permeability assay", "type": "in vitro ADME, Human", "details": "1.2 mM on apical side, up to 24 h, compared with tCA", "experimental": "Caco-2 cells were seeded at 1 × 10^5 cells per insert in Transwell inserts with a pore size of 0.4 μm (SPL Inc., Houston, TX, USA). DMEM, containing 10% FBS and 1% penicillin/streptomycin, was added to the basolateral (well) (1 mL) and apical (insert) compartments (0.2 mL). The cells were grown until the trans-epithelial electrical resistance value (EMD Millipore, Billerica, MA, USA) of the cell monolayer reached 2000 Ω cm^2. After removing the culture medium, tCA and its derivatives (1.2 mM) dissolved in DMEM (0.2 mL) without phenol red and were placed on the apical side of the cell monolayer. At appropriate time intervals, the concentrations of the drugs on the basolateral side filled with DMEM (1.0 mL) were determined using HPLC."}, "[2]": {"assay": "Chemical stability in pH 1.2 and pH 6.8 buffers", "type": "physicochemical", "details": "incubation for up to 10 h", "experimental": "as §2, with “Each drug (0.1 mM) dissolved in the buffers was incubated for at least 12 h, and change in the concentrations of the drugs was monitored using HPLC analysis.” left out"}, "[3]": {"assay": "Stability in small intestinal contents", "type": "in vitro ADME", "details": "rat small intestinal contents, up to 10 h", "experimental": "(§3) Male Sprague–Dawley (SpD) rats (250–260 g) were killed using CO2 gas. The proximal small intestinal, distal small intestinal, and cecal contents were collected separately and suspended in pH 6.8 isotonic phosphate buffer to prepare a 20% w/v suspension. tCA-GA and tCA-AA (10 mM) dissolved in pH 6.8 isotonic phosphate buffer (4 mL) were added to the suspension (4 mL) and incubated at 37 °C. To maintain anaerobic conditions, the collection of cecal contents and incubation of the conjugates in the cecal contents were conducted in a nitrogen gas bag (Sigma-Aldrich, Burlington, MA, USA). At appropriate time intervals, a portion of the mixture (0.5 mL), pipetted using a wide-orifice tip, was centrifuged in a microtube. After acidification (with 1.0 M HCl) of the supernatant (0.3 mL), EA was added and vigorously mixed. The organic layer (0.2 mL) was retrieved and evaporated. The residue, dissolved in the mobile phase (0.2 mL), was filtered and subjected to HPLC analysis. Centrifugation was conducted at 10,000× g for 10 min at 4 °C."}, "[4]": {"assay": "Cleavage test with autoclaved cecal contents", "type": "in vitro ADME, rat", "details": "up to 24 h"}, "[5]": {"assay": "Conversion of conjugates to tCA in cecal contents under nitrogen", "type": "in vitro ADME", "details": "rat cecal contents under nitrogen", "experimental": "as §3"}, "[6]": {"details": "RAW 264.7, LPS, MPZ 100 µM with tCA"}, "[7]": {"details": "tCA-GA 28 mg/kg oral once per day for 6 days (MPZ experiment)"}},
  "data": [
    {"compound": "C[N+]1(C)CCCC(OC(=O)C(O)(c2ccccc2)c2ccccc2)C1", "note": "(centres unmarked) [MPZ, mepenzolate, reference compound]", "values": [
      {"measurement": "inflammatory state after single treatment", "setting": "DNBS-induced rat colitis; MPZ 2 mg/kg alone, oral, 6 days", "result": "inflammatory state similar to that induced by the DNBS control"},
      {"measurement": "effect of co-administered MPZ on colonic damage and inflammation", "setting": "DNBS-induced rat colitis; MPZ 2 mg/kg co-administered with tCA-GA 28 mg/kg, oral, 6 days", "result": "significantly compromised the beneficial effects of tCA-GA"},
      {"measurement": "effect of co-administered MPZ on IL-10 level in inflamed colon", "setting": "DNBS-induced rat colitis; MPZ 2 mg/kg combined with tCA-GA 28 mg/kg, oral, 6 days", "result": "significantly suppressed the increase in the levels of IL-10"},
      {"measurement": "effect of MPZ on tCA suppression of COX-2 and iNOS", "setting": "RAW 264.7 cells; [6]", "result": "undermined the suppressive effects of tCA"},
      {"measurement": "effect of MPZ on tCA-increased IL-10 level", "setting": "RAW 264.7 cells; [6]", "result": "significantly suppressed by MPZ"}
    ]},
    {"compound": "O=C(O)c1cc(/N=N/c2ccc(S(=O)(=O)Nc3ccccn3)cc2)ccc1O", "note": "[SSZ, sulfasalazine, reference compound]", "values": [
      {"measurement": "colonic damage (CDS)", "setting": "DNBS-induced rat colitis", "result": "tCA was as effective as SSZ"}
    ]},
    {"compound": "O=C(O)/C=C/c1ccccc1", "note": "[tCA, trans-cinnamic acid]", "values": [
      {"measurement": "CINC-3 level in inflamed distal colon", "setting": "DNBS-induced rat colitis", "result": "lowered"},
      {"measurement": "MPO activity in inflamed distal colon", "setting": "DNBS-induced rat colitis", "result": "lowered MPO activity"},
      {"measurement": "iNOS and COX-2 protein levels in inflamed distal colon", "setting": "DNBS-induced rat colitis", "result": "lowered"},
      {"measurement": "colonic damage (CDS)", "setting": "DNBS-induced rat colitis", "result": "ameliorated colonic damage"},
      {"measurement": "LPS-induced COX-2 and iNOS protein levels", "setting": "RAW 264.7 cells; RAW 264.7, LPS 24 h, tCA pretreatment 1 h", "result": "reduced the levels of COX-2 and iNOS"},
      {"measurement": "IL-10 level in cell culture supernatant", "setting": "RAW 264.7 cells; RAW 264.7, LPS, tCA 2 mM / 5 mM", "result": "increased the level of IL-10"}
    ]},
    {"compound": "O=C(O)C[C@H](NC(=O)/C=C/c1ccccc1)C(=O)O", "note": "[tCA-AA, N-Cinnamoyl-L-Aspartic Acid]", "values": [
      {"measurement": "logD", "setting": "[1]", "result": -0.61},
      {"measurement": "permeation through the Caco-2 cell monolayer", "setting": "Caco-2 cell monolayer", "result": "substantially delayed the permeation of tCA through the cell monolayer"},
      {"measurement": "change in concentration in buffers (pH 1.2, 6.8)", "setting": "[2]", "result": "no notable changes in the concentrations"},
      {"measurement": "change in concentration in small intestinal contents", "setting": "[3]", "result": "no notable changes in the concentrations"},
      {"measurement": "stability in autoclaved cecal contents", "setting": "[4]", "result": "remained intact for up to 24 h"}
    ]},
    {"compound": "O=C(O)CC[C@H](NC(=O)/C=C/c1ccccc1)C(=O)O", "note": "[tCA-GA, N-Cinnamoyl-L-Glutamic Acid]", "values": [
      {"measurement": "logD", "setting": "[1]", "result": -0.98},
      {"measurement": "permeation through the Caco-2 cell monolayer", "setting": "Caco-2 cell monolayer", "result": "substantially delayed the permeation of tCA through the cell monolayer"},
      {"measurement": "change in concentration in buffers (pH 1.2, 6.8)", "setting": "[2]", "result": "no notable changes in the concentrations"},
      {"measurement": "change in concentration in small intestinal contents", "setting": "[3]", "result": "no notable changes in the concentrations"},
      {"measurement": "conversion rate to tCA", "setting": "[5]", "result": "higher than that of tCA-AA to tCA"},
      {"measurement": "stability in autoclaved cecal contents", "setting": "[4]", "result": "remained intact for up to 24 h"},
      {"measurement": "H&E staining, mucosal layer of distal colon", "setting": "DNBS-induced rat colitis; both doses of tCA-GA, greater than tCA and SSZ", "result": "recovered the mucosal layer of the distal colon"},
      {"measurement": "IL-10 level in inflamed colon", "setting": "DNBS-induced rat colitis; first experiment (Supplementary Data S6), more effective than oral tCA", "result": "increased the levels of IL-10 in the inflamed colon"},
      {"measurement": "CINC-3 level in inflamed distal colon", "setting": "DNBS-induced rat colitis", "result": "lowered"},
      {"measurement": "MPO activity in inflamed distal colon", "setting": "DNBS-induced rat colitis", "result": "lowered MPO activity"},
      {"measurement": "iNOS and COX-2 protein levels in inflamed distal colon", "setting": "DNBS-induced rat colitis", "result": "lowered"},
      {"measurement": "colonic damage (CDS)", "setting": "DNBS-induced rat colitis", "result": "significantly more effective than tCA at mitigating pathological changes"},
      {"measurement": "IL-10 level in inflamed colon", "setting": "DNBS-induced rat colitis; [7]", "result": "increased the levels of IL-10 in the inflamed colon"},
      {"measurement": "colonic damage incl. colon length shortening", "setting": "DNBS-induced rat colitis; [7]", "result": "substantially alleviates colonic damage"},
      {"measurement": "colonic inflammation (MPO activity, CINC-3, iNOS, COX-2 in distal colon)", "setting": "DNBS-induced rat colitis; [7]", "result": "markedly suppressed"}
    ]}
  ]
}
